These results are taken from PubChem BioAssay AID1259411 (Chemical Carcinogenesis Research Information System (CCRIS), 2018).

Molecules are shown by their SMILES. Calls of active or inactive are those of the source. The rule behind the calls is not given here.

For this series, the system named is rodent carcinogenicity bioassays, tumor incidence. As to the kind of experiment: CCRIS carcinogenicity studies. As to conditions: Dose: 0, Dose: 0. The gist of the method: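 NCI-built, expert-reviewed records of carcinogenicity and related test outcomes (mutagenicity, tumor promotion/inhibition) compiled from published and report sources, historical span 1985-2011, not updated.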

In the case of `CCCCCN(C)N=O`, the carcinogen call runs as follows: (Species: HAMSTER, Strain/Sex: SYRIAN/FEMALE, Route: GAVAGE, 5.6 MG/KG 1/WK FOR 23-30 WK (TOTAL DOSE: 0; 1.1 MMOL) (STUDY DURATION: LIFETIME), 5.6 MG/KG 1/WK FOR 23-30 WK (TOTAL DOSE: 0; 1.1 MMOL) (STUDY DURATION: LIFETIME), Tumor Site: Type of Lesion: LUNG: ALVEOLAR/BRONCHIAL ADENOMA, NASAL MUCOSA: CARCINOMA, ADENOMA, FORESTOMACH: SQUAMOUS CELL CARCINOMA, SQUAMOUS CELL, Tumor Site: Type of Lesion: LUNG: ALVEOLAR/BRONCHIAL ADENOMA, NASAL MUCOSA: CARCINOMA, ADENOMA, FORESTOMACH: SQUAMOUS CELL CARCINOMA, SQUAMOUS CELL) “active; positive”; (Species: HAMSTER, Strain/Sex: SYRIAN/MALE,FEMALE, Route: INTRAPERITONEAL, 3, 6 MG/KG ONCE ON DAYS 1 AND 3 OF AGE, RESPECTIVELY (STUDY DURATION: >75 WK), 3, 6 MG/KG ONCE ON DAYS 1 AND 3 OF AGE, RESPECTIVELY (STUDY DURATION: >75 WK)) “inactive; negative”; (Species: HAMSTER, Strain/Sex: SYRIAN/MALE,FEMALE, Route: INTRAPERITONEAL, 3 MG/KG ONCE TO NEWBORN ANIMALS (STUDY DURATION: LIFETIME)) “inactive; negative”; (Species: HAMSTER, Strain/Sex: SYRIAN/MALE,FEMALE, Route: INTRAPERITONEAL, 6 MG/KG ONCE TO 3 D-OLD ANIMALS (STUDY DURATION: LIFETIME)) “inactive; negative”; (Species: HAMSTER, Strain/Sex: SYRIAN/MALE,FEMALE, Route: INTRAPERITONEAL, 70-100 MG/KG ONCE TO ADULT ANIMALS (STUDY DURATION: LIFETIME), Tumor Site: Type of Lesion: ESOPHAGUS: PAPILLOMA OR CARCINOMA) “active; positive”; (Species: HAMSTER, Strain/Sex: SYRIAN/MALE,FEMALE, Route: INTRAPERITONEAL, 70 MG/KG (3 MALE HAMSTERS), 100 MG/KG (11 FEMALE HAMSTERS) ONCE AT 46-49 DAYS OF AGE (STUDY DURATION: >43 WK), 70 MG/KG (3 MALE HAMSTERS), 100 MG/KG (11 FEMALE HAMSTERS) ONCE AT 46-49 DAYS OF AGE (STUDY DURATION: >43 WK)) “inactive; negative”. The carcinogen call is “active; positive” (Species: HAMSTER, Strain/Sex: SYRIAN/MALE,FEMALE, Route: INTRAPERITONEAL, 75 MG/KG 1/WK FOR 6 WK BEGINNING AT 38 DAYS OF AGE (STUDY DURATION: >33 WK), Tumor Site: Type of Lesion: FORESTOMACH: PAPILLOMA, LUNG: ADENOMA, NASAL CAVITY: TUMOR, Tumor Site: Type of Lesion: FORESTOMACH: PAPILLOMA, LUNG: ADENOMA, NASAL CAVITY: TUMOR); “active; positive” (Species: HAMSTER, Strain/Sex: SYRIAN/MALE,FEMALE, Route: INTRAPERITONEAL, 75 MG/KG 1/WK FOR 6 WK TO ADULT ANIMALS (STUDY DURATION: LIFETIME), Tumor Site: Type of Lesion: ESOPHAGUS: PAPILLOMA, FORESTOMACH: PAPILLOMA, LUNG: ADENOMA, NASAL CAVITY: ADENOMA, ADENOCARCINOMA OR SQUAMOUS CARCINOMA, Tumor Site: Type of Lesion: ESOPHAGUS: PAPILLOMA, FORESTOMACH: PAPILLOMA, LUNG: ADENOMA, NASAL CAVITY: ADENOMA, ADENOCARCINOMA OR SQUAMOUS CARCINOMA); “active; positive” (Species: HAMSTER, Strain/Sex: SYRIAN/MALE, Route: GAVAGE, 5.6 MG/KG 1/WK FOR 23-30 WK (TOTAL DOSE: 0; 1.1 MMOL) (STUDY DURATION: LIFETIME), 5.6 MG/KG 1/WK FOR 23-30 WK (TOTAL DOSE: 0; 1.1 MMOL) (STUDY DURATION: LIFETIME), Tumor Site: Type of Lesion: LIVER: HEPATOCELLULAR ADENOMA, HEMANGIOSARCOMA, LUNG: ALVEOLAR/BRONCHIAL ADENOMA, NASAL MUCOSA: CARCINOMA, FORESTOMACH:, Tumor Site: Type of Lesion: LIVER: HEPATOCELLULAR ADENOMA, HEMANGIOSARCOMA, LUNG: ALVEOLAR/BRONCHIAL ADENOMA, NASAL MUCOSA: CARCINOMA, FORESTOMACH:); “active; positive” (Species: MOUSE, Strain/Sex: 101/N/MALE, FEMALE, Route: ORAL, 0.0015% IN DRINKING WATER FOR 8 WK (STUDY DURATION: 24 WK), Tumor Site: Type of Lesion: ESOPHAGUS: TUMOR); “active; positive” (Species: MOUSE, Strain/Sex: BXH-8/MALE, FEMALE, Route: ORAL, 0.0015% IN DRINKING WATER FOR 8 WK (STUDY DURATION: 24 WK), Tumor Site: Type of Lesion: ESOPHAGUS: TUMOR); “active; positive” (Species: MOUSE, Strain/Sex: C57BL/MALE,FEMALE, Route: ORAL, 0.0015% IN DRINKING WATER FOR 8 WK (STUDY DURATION: 24 WK), Tumor Site: Type of Lesion: ESOPHAGUS:TUMOR). Moreover, the carcinogen call was “active; positive” (Species: MOUSE, Strain/Sex: STX/LE/MALE,FEMALE, Route: ORAL, 0.0015% IN DRINKING WATER FOR 8 WK (STUDY DURATION: 24 WK), Tumor Site: Type of Lesion: ESOPHAGUS: TUMOR); “active; positive” (Species: MOUSE, Strain/Sex: SWISS/MALE,FEMALE, Route: INTRAPERITONEAL, 15 MG/KG 1/WK FOR 3 WK BEGINNING AT 38 DAYS OF AGE (STUDY DURATION: >79 WK), Tumor Site: Type of Lesion: ESOPHAGUS: PAPILLOMA, LUNG: ADENOMA); “active; positive” (Species: MOUSE, Strain/Sex: SWISS/MALE,FEMALE, Route: INTRAPERITONEAL, 15 MG/KG 1/WK FOR 3 WK TO ADULT ANIMALS (STUDY DURATION: LIFETIME), Tumor Site: Type of Lesion: ESOPHAGUS: PAPILLOMA, LUNG: ADENOMA); “inactive; negative” (Species: RAT, Strain/Sex: WISTAR/MALE,FEMALE, Route: INTRAPERITONEAL, 6, 12.5 MG/KG ONCE AT 1 AND 3 DAYS OF AGE, RESPECTIVELY (STUDY DURATION: >82 WK), 6, 12.5 MG/KG ONCE AT 1 AND 3 DAYS OF AGE, RESPECTIVELY (STUDY DURATION: >82 WK)); “inactive; negative” (Species: RAT, Strain/Sex: WISTAR/MALE,FEMALE, Route: INTRAPERITONEAL, 6 MG/KG ONCE TO NEWBORN ANIMALS (STUDY DURATION: LIFETIME)); “inactive; negative” (Species: RAT, Strain/Sex: WISTAR/MALE,FEMALE, Route: INTRAPERITONEAL, 12.5 MG/KG ONCE TO 3 D-OLD ANIMALS (STUDY DURATION: LIFETIME)). Moreover, the carcinogen call by setting is: (Species: RAT, Strain/Sex: WISTAR/MALE,FEMALE, Route: INTRAPERITONEAL, 50-70 MG/KG ONCE TO ADULT ANIMALS (STUDY DURATION: LIFETIME), Tumor Site: Type of Lesion: ESOPHAGUS: PAPILLOMA, CARCINOMA) “active; positive”; (Species: RAT, Strain/Sex: WISTAR/MALE,FEMALE, Route: INTRAPERITONEAL, 50 MG/KG (7 FEMALE RATS), 60 MG/KG (2 FEMALE RATS), 70 MG/KG (10 MALE RATS) ONCE AT 42-50 DAYS OF AGE (STUDY DURATION, 50 MG/KG (7 FEMALE RATS), 60 MG/KG (2 FEMALE RATS), 70 MG/KG (10 MALE RATS) ONCE AT 42-50 DAYS OF AGE (STUDY DURATION, Tumor Site: Type of Lesion: ESOPHAGUS: CARCINOMA) “active; positive”.
As to `C=CCOC(Cn1ccnc1)c1ccc(Cl)cc1Cl` (centres undefined), the carcinogen call is “active; positive” (Species: Mouse, Strain/Sex: Swiss/Female (50/Group), Route: Oral, 50, 200, 600 ppm 93% imazalil in diet in 50:50 Aerosil:corn starch for 2 yr, study duration 2 yr, 50, 200, 600 ppm 93% imazalil in diet in 50:50 Aerosil:corn starch for 2 yr, study duration 2 yr, Tumor Site: Type of Lesion: Liver: hepatocytic neoplasms); “active; positive” (Species: Mouse, Strain/Sex: Swiss/Male (50/Group), Route: Oral, 50, 200, 600 ppm 93% imazalil in diet in 50:50 Aerosil:corn starch for 2 yr, study duration 2 yr, 50, 200, 600 ppm 93% imazalil in diet in 50:50 Aerosil:corn starch for 2 yr, study duration 2 yr, Tumor Site: Type of Lesion: Liver: hepatocytic neoplasms); “inactive; negative” (Species: Rat, Strain/Sex: Cpb:WU/Female (20/Group), Route: Oral, 25, 100, 400 ppm 98.1% imazalil in diet for 18 mo, study duration 18 mo, 25, 100, 400 ppm 98.1% imazalil in diet for 18 mo, study duration 18 mo); “inactive; negative” (Species: Rat, Strain/Sex: Cpb:WU/Male (20/Group), Route: Oral, 25, 100, 400 ppm 98.1% imazalil in diet for 18 mo, study duration 18 mo, 25, 100, 400 ppm 98.1% imazalil in diet for 18 mo, study duration 18 mo).
